Patent US20210267944A1 (BioXcel Therapeutics, Inc., priority 2018, published 2021)
Several values for one entry are separate records, joined by “and”; a condition that tells them apart may be missing. Identical values can stand only once. Counter-ions that a name gives are not always drawn. Like-named read-outs stand apart in the source and are kept apart here.

Experiments:
[1] = tested on: subjects suffering from opiate withdrawal symptoms;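 note: inpatients in opioid withdrawal given intravenous infusion titrated upward every 30 min (up to 0.1 mcg/kg/hr steps) until COWS total, a clinician-rated 11-item withdrawal scale, fell by half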
[2] = Opioid withdrawal Study
Source text: Additional Assessment Included: • 1. Hematological and blood chemistry, urinalysis • 2. Physical examination • 3. Standard of care detoxification treatment (ancillary medications) to alleviate symptoms of acute withdrawal to ensure safe discharge from study site. • 4. Adverse event reporting

[3] = for Plasma concentrations: individual opioid withdrawal patients, IV infusion

Cc1cccc([C@H](C)c2cnc[nH]2)c1C [dexmedetomidine hydrochloride]
COW score ([1]; Day 1, Patient OP-9 (Treatment), 00:45 Hr): 9
COW score ([1]; Day 1, Patient OP-9 (Treatment), 01:00 Hr): 10
COW score ([1]; Day 1, Patient OP-9 (Treatment), 01:15 Hr): 6
COW score ([1]; Day 1, Patient OP-9 (Treatment), 30 min. post Infusion): 9
COW score ([1]; Day 1, Patient OP-10 (Treatment), 00:00 Hr): 10
COW score ([1]; Day 1, Patient OP-10 (Treatment), 00:15 Hr): 7
COW score ([1]; Day 1, Patient OP-10 (Treatment), 00:30 Hr): 1
COW score ([1]; Day 1, Patient OP-10 (Treatment), 30 min. post Infusion): 3
COW score ([1]; Day 1, Patient OP-11 (Treatment), 00:00 Hr): 16
COW score ([1]; Day 1, Patient OP-11 (Treatment), 00:15 Hr): 16
COW score ([1]; Day 1, Patient OP-11 (Treatment), 00:45 Hr): 13
COW score ([1]; Day 1, Patient OP-11 (Treatment), 01:00 Hr): 14
COW score ([1]; Day 1, Patient OP-11 (Treatment), 01:15 Hr): 10
COW score ([1]; Day 1, Patient OP-11 (Treatment), 01:30 Hr): 8
COW score ([1]; Day 1, Patient OP-11 (Treatment), 30 min. post Infusion): 8
COW score ([1]; Day 1, Patient OP-12 (Treatment), 00:00 Hr): 16
COW score ([1]; Day 1, Patient OP-12 (Treatment), 00:15 Hr): 12
COW score ([1]; Day 1, Patient OP-12 (Treatment), 00:30 Hr): 9
COW score ([1]; Day 1, Patient OP-12 (Treatment), 00:45 Hr): 9
COW score ([1]; Day 1, Patient OP-12 (Treatment), 01:00 Hr): 10
COW score ([1]; Day 1, Patient OP-12 (Treatment), 01:15 Hr): 9
COW score ([1]; Day 1, Patient OP-12 (Treatment), 01:30 Hr): 4
COW score ([1]; Day 1, Patient OP-12 (Treatment), 30 min. post Infusion): 5
COW score ([1]; Day 1, Patient OP-15 (Treatment), 00:00 Hr): 13
COW score ([1]; Day 1, Patient OP-15 (Treatment), 00:15 Hr): 8
COW score ([1]; Day 1, Patient OP-15 (Treatment), 00:30 Hr): 4
COW score ([1]; Day 1, Patient OP-15 (Treatment), 30 min. post Infusion): 4
COW score ([1]; Day 1, Patient OP-17 (Treatment), 00:00 Hr): 10
COW score ([1]; Day 1, Patient OP-17 (Treatment), 00:15 Hr): 11
COW score ([1]; Day 1, Patient OP-17 (Treatment), 00:30 Hr): 9
COW score ([1]; Day 1, Patient OP-17 (Treatment), 00:45 Hr): 8
COW score ([1]; Day 1, Patient OP-17 (Treatment), 01:00 Hr): 4
COW score ([1]; Day 1, Patient OP-17 (Treatment), 30 min. post Infusion): 5
COW score ([1]; Day 2, Patient OP-1 (Treatment), 00:00 Hr): 9
COW score ([1]; Day 2, Patient OP-1 (Treatment), 00:15 Hr): 8
COW score ([1]; Day 2, Patient OP-1 (Treatment), 00:30 Hr): 2
COW score ([1]; Day 2, Patient OP-1 (Treatment), last cell, 30 min. post Infusion): 0
COW score ([1]; Day 2, Patient OP-2 (Treatment), 00:00 Hr): 14
COW score ([1]; Day 2, Patient OP-2 (Treatment), 00:15 Hr): 11
COW score ([1]; Day 2, Patient OP-2 (Treatment), 00:30 Hr): 12
COW score ([1]; Day 2, Patient OP-2 (Treatment), 00:45 Hr): 10
COW score ([1]; Day 2, Patient OP-2 (Treatment), 01:00 Hr): 9
COW score ([1]; Day 2, Patient OP-2 (Treatment), 01:15 Hr): 7
COW score ([1]; Day 2, Patient OP-2 (Treatment), last cell, 30 min. post Infusion): 4
COW score ([1]; Day 2, Patient OP-3 (Treatment), 00:00 Hr): 10
COW score ([1]; Day 2, Patient OP-3 (Treatment), 00:15 Hr): 8
COW score ([1]; Day 2, Patient OP-3 (Treatment), 00:30 Hr): 6
COW score ([1]; Day 2, Patient OP-3 (Treatment), 00:45 Hr): 4
COW score ([1]; Day 2, Patient OP-3 (Treatment), last cell, 30 min. post Infusion): 4
COW score ([1]; Day 2, Patient OP-9 (Treatment), 00:30 Hr): 14
COW score ([1]; Day 2, Patient OP-9 (Treatment), 00:45 Hr): 14
COW score ([1]; Day 2, Patient OP-9 (Treatment), 01:00 Hr): 14
COW score ([1]; Day 2, Patient OP-9 (Treatment), 01:15 Hr): 12
COW score ([1]; Day 2, Patient OP-9 (Treatment), 01:30 Hr): 12
COW score ([1]; Day 2, Patient OP-9 (Treatment), 01:45 Hr): 12
COW score ([1]; Day 2, Patient OP-9 (Treatment), 02:00 Hr): 9
COW score ([1]; Day 2, Patient OP-9 (Treatment), last cell, 30 min. post Infusion): 9
COW score ([1]; Day 2, Patient OP-17 (Treatment), 00:00 Hr): 14
COW score ([1]; Day 2, Patient OP-17 (Treatment), 00:15 Hr): 14
COW score ([1]; Day 2, Patient OP-17 (Treatment), 00:30 Hr): 12
COW score ([1]; Day 2, Patient OP-17 (Treatment), 00:45 Hr): 11
COW score ([1]; Day 2, Patient OP-17 (Treatment), 01:00 Hr): 5
COW score ([1]; Day 2, Patient OP-17 (Treatment), last cell, 30 min. post Infusion): 5
Efficacy (Primary/secondary end points): subjects with COWS greater than or equal to 50% reduction ([1]; Opioid withdrawal Study): 11/11 COWS
Range of efficacious dose of IV dexmedetomidine hydrochloride ([1]; Opioid withdrawal Study, continuous infusion): 0.2 to 0.7 µg/kg/h
effect on physiological symptoms of opioid withdrawal (COWS) ([1]; opioid withdrawal): effectively mitigated the physiological symptoms of opioid withdrawal
subjects who achieved 50% reduction in COW score ([1]; opioid withdrawal, Day 1): 10 out of 10
optimal dose at 50% of the COW score achieved, Max ([1]; opioid withdrawal, Day 1, n=10): 0.4 µg/kg/h
optimal dose at 50% of the COW score achieved, Mean ± Sd (mean infusion rate) ([1]; opioid withdrawal, Day 1, n=10): 0.29 µg/kg/h
optimal dose at 50% of the COW score achieved, Median ([1]; opioid withdrawal, Day 1, n=10): 0.3 µg/kg/h
optimal dose at 50% of the COW score achieved, Min ([1]; opioid withdrawal, Day 1, n=10): 0.2 µg/kg/h
optimal dose at 50% of the COW score achieved, Mean ± Sd (mean infusion rate) ([1]; opioid withdrawal, Day 1, n=10, listed as Test): 0.29 ± 0.08 µg/kg/h
patients in the treatment arm who achieved 50% reduction in COW score ([1]; opioid withdrawal, Day 2): 5 out of 5
optimal dose at 50% of the COW score achieved, Max ([1]; opioid withdrawal, Day 2, n=5): 0.7 µg/kg/h
optimal dose at 50% of the COW score achieved, Mean ± Sd (mean infusion rate) ([1]; opioid withdrawal, Day 2, n=5): about 0.44 mcg/kg/hr
optimal dose at 50% of the COW score achieved, Median ([1]; opioid withdrawal, Day 2, n=5): 0.4 µg/kg/h
optimal dose at 50% of the COW score achieved, Min ([1]; opioid withdrawal, Day 2, n=5): 0.2 µg/kg/h
optimal dose at 50% of the COW score achieved, Mean ± Sd (mean infusion rate) ([1]; opioid withdrawal, Day 2, n=5, listed as Test): 0.44 ± 0.16 µg/kg/h
adverse events [2]: No adverse event was reported
Plasma concentrations ([3]; Day 1 (printed Day −1), 00:00 Hr): BLQ
Plasma concentrations ([3]; Day 2 (printed Day −2), 00:00 Hr): BLQ
Plasma concentrations ([3]; Day 2 (printed Day −2), 01:00 Hr): 54.81 picograms/ml and 97.92 picograms/ml and 119.71 picograms/ml
Plasma concentration achieved at efficacious doses ([3]; Opioid withdrawal Study): 0.011 to 0.406 ng/mL
